Laboratory results reported in patent US11247993B2, “Pyridone derivative, composition and use as antiviral drug thereof” (priority 2018, dated 2022).
Like-named read-outs stand apart in the source and are kept apart here.

Columns and labels:
[1] = test system: influenza virus A/PR/8/34 (H1N1); assay: organism not typed; assay type: cell-based; conditions: 120 h
in vitro = assay type: cell-based; conditions: dog
Procedure: Method for cytotoxicity study: The cytotoxicity assay and antiviral activity assay of the compounds were performed in parallel, except for the absence of virus, other experimental conditions were consistent with the antiviral activity assay. After 5 days of culture, the cell viability was measured using the cell viability detection kit CCK8. Raw data were used for calculating compound cytotoxicity (CC50) (see Table 1 for results).

in vivo = assay: in vivo; design: species or system SD rats; conditions: SD, rat, iv, 0.25 mg/kg
Procedure: Intravenous injection: about 2 mg of Compound 11-5, Compound 11-6 and Compound 1-77 were accurately weighed out and added with appropriate amount of DMA, followed by vortex to a clean solution. An appropriate volume of 30% Solutol HS-15 aqueous solution and saline were added and vortexed, so that DMA: 30% Solutol HS-15: saline was 20:20:60 (v/v/v). The solution was filtered to give a 0.05 mg·mL^−1 pharmaceutical preparation. SD rats were given a single injection of 0.25 mg·kg^−1 of Compounds 11-5, 11-6 and 1-77 intravenously. 0.20 mL of blood was collected from the jugular vein before administration and 0.083 h, 0.25 h, 0.5 h, 1 h, 2 h, 4 h, 8 h, 12 h and 24 h after administration, and placed in an EDTA-K2 anticoagulation tube. 150 μL of whole blood was accurately pipetted immediately, and added into a test tube to which 450 μL of acetonitrile has been added to precipitate proteins, and the tube was vortexed, and placed on wet ice. It was stored in a −90˜−60° C. refrigerator for biological sample analysis. The concentration of the corresponding compound in the plasma of S-D rats was determined by LC-MS/MS analysis. The corresponding pharmacokinetic parameters were calculated using a non-compartmental model in Pharsight Phoenix 7.0.

[2] = design: species or system SD rats; conditions: SD, rat, in vivo, po, 3 mg/kg
Procedure: Intragastric administration: about 4 mg of Compound III-2 was accurately weighed out and added with appropriate amount of PEG400, followed by vortex to a clean solution. An appropriate volume of 30% Solutol HS-15 aqueous solution and saline were added, and followed by vortex to give a pharmaceutical preparation of a concentration of 0.3 mg·mL^−1, with PEG400: 30% Solutol HS-15: saline=2:2:6 (v/v/v). SD rats were given a single oral administration of 3.0 mg·kg^−1 of Compounds III-2, and the concentration of Compound II-6 in the plasma of S-D rats was determined before administration and 0.25 h, 0.5 h, 1 h, 2 h, 4 h, 8 h, 12 h and 24 h after administration.

[3] = test system: influenza A virus (H1N1, A/WSN/33); assay: Efficacy on mice, IAV mouse infection model; assay type: in vivo, Female BALB/c mice; conditions: 15 mpk orally twice a day; for Body weight change / Survival rate: infected mice; for Body weight change: during the experiment; for Survival rate: to the predetermined experimental end point; for Mean difference of virus titer compared with the solvent group / Influenza Virus Titer in lung tissue: mice, 5th day after infection
Excerpt: Female BALB/c mice were inoculated with influenza A virus (H1N1, A/WSN/33) by intranasal administration to establish an IAV mouse infection model. The vehicle, Compound III-2 (15 mpk) or oseltamivir phosphate (15 mpk) were orally administered twice a day. Animal weight and survival status were monitored daily during the test, and on the 5th day, some animals were killed to take lung tissue for virus titer detection, and the remaining mice were used for survival rate monitoring. The in vivo anti-influenza virus efficacy of the test compound was determined by virus titer in lung tissue, mouse body weight change and survival rate.

[4] = MDCK cells, A/PR/8/34 (H1N1), 5 days, CCK8, read-out: EC50

SMILES | EC50 [1, 4] [nM] | CC50 at 5 days (in vitro) [nM] | further results
O=C1c2c(O)c(=O)ccn2N([C@H]2c3ccccc3CSc3ccccc32)CN1C1CC2(CCC2)C1 [Compound I-1] | 0.5 | > 1000 | –
O=C1c2c(O)c(=O)ccn2N([C@@H]2c3ccccc3SCc3c2ccc(F)c3F)CN1C1CC2(CCC2)C1 [Compound I-5] | 0.44 | > 1000 | –
O=C1c2c(O)c(=O)ccn2N([C@@H]2c3ccccc3SCc3c2ccc(F)c3F)CN1CCOC1CC1 [Compound I-7] | 0.83 | > 1000 | –
O=C1c2c(O)c(=O)ccn2N([C@@H]2c3ccccc3SCc3c2ccc(F)c3F)CN1CCSC1CC1 [Compound I-8] | 0.75 | > 1000 | –
O=C1c2c(O)c(=O)ccn2N([C@H]2c3ccccc3CSc3ccccc32)CN1C1CC2(CC2)C1 [Compound I-9] | 0.4 | > 1000 | –
O=C1c2c(O)c(=O)ccn2N([C@H]2c3ccccc3CSc3ccccc32)CN1C1CC2(COC2)C1 [Compound I-10] | 0.7 | > 1000 | –
O=C1c2c(O)c(=O)ccn2N([C@@H]2c3ccccc3SCc3c2ccc(F)c3F)CN1C1CC2(CC2)C1 [Compound I-14] | 0.32 | > 1000 | –
O=C1c2c(O)c(=O)ccn2N([C@@H]2c3ccccc3SCc3cccc(F)c32)CN1C1CC2(CCC2)C1 [Compound I-21] | 0.6 | > 1000 | –
O=C1c2c(O)c(=O)ccn2N([C@@H]2c3ccccc3SCc3c2ccc(F)c3F)CN1C1C2CC1C2 (stereo partly drawn) [Compound I-65] | 0.37 | > 1000 | –
O=C1c2c(O)c(=O)ccn2N([C@@H]2c3ccccc3SCc3c2ccc(F)c3F)CN1C1C2CC1C2F (stereo partly drawn) [Compound I-66] | 0.58 | > 1000 | –
O=C1c2c(O)c(=O)ccn2N([C@H]2c3ccccc3CSc3ccccc32)CN1C12CC(C1)C2 [Compound I-69] | 0.35 | > 1000 | –
O=C1c2c(O)c(=O)ccn2N([C@@H]2c3ccccc3SCc3c2ccc(F)c3F)CN1C12CC(C1)C2 [Compound I-77] | 0.16 | > 1000 | AUC(0-t) (in vivo): 0.307 µg·h/mL; Vd (in vivo): 2.77 L/kg; clearance (in vivo): 0.78 L/h/kg; half-life (in vivo): 2.96 h
O=C1c2c(O)c(=O)ccn2N([C@@H]2c3ccccc3SCc3c(F)cccc32)CN1C12CC(C1)C2 [Compound I-81] | 0.19 | > 1000 | –
O=C1c2c(O)c(=O)ccn2N([C@H]2c3ccc(F)cc3CSc3ccccc32)CN1C12CC(C1)C2 [Compound I-83] | 0.21 | > 1000 | –
O=C1c2c(O)c(=O)ccn2N([C@@H]2c3ccccc3SCc3cccc(F)c32)CN1C12CC(C1)C2 [Compound I-85] | 0.18 | > 1000 | –
O=C1c2c(O)c(=O)ccn2N([C@@H]2c3ccccc3SCc3cccc(Cl)c32)CN1C12CC(C1)C2 [Compound I-89] | 0.17 | > 1000 | –
O=C1c2c(O)c(=O)ccn2N([C@H]2c3ccccc3CSc3ccccc32)[C@@H]2COCC3(CC3)N12 [II-1] | – | > 1000 | EC50 ([1]; MDCK): 0.45 nM
O=C1c2c(O)c(=O)ccn2N([C@H]2c3ccccc3CSc3ccccc32)[C@@H]2COC3(CC3)CN12 [II-2] | 0.51 | > 1000 | –
O=C1c2c(O)c(=O)ccn2N([C@@H]2c3ccccc3SCc3c2ccc(F)c3F)[C@@H]2COCC3(CC3)N12 [II-5] | – | > 1000 | EC50 ([1]; MDCK): 0.22 nM; AUC(0-t) (in vivo): 0.187 µg·h/mL; Vd (in vivo): 3.69 L/kg; clearance (in vivo): 1.25 L/h/kg; half-life (in vivo): 2.49 h

SMILES | EC50 [1, 4] [nM] | CC50 at 5 days (in vitro) [nM] | further results
O=C1c2c(O)c(=O)ccn2N([C@@H]2c3ccccc3SCc3c2ccc(F)c3F)[C@@H]2COC3(CC3)CN12 [II-6] | 0.26 | > 1000 | AUC(0-t) (in vivo): 0.276 µg·h/mL; Vd (in vivo): 3.12 L/kg; clearance (in vivo): 0.816 L/h/kg; half-life (in vivo): 2.97 h
O=C1c2c(O)c(=O)ccn2N([C@@H]2c3ccccc3SCc3c2ccc(F)c3F)[C@@H]2COC3(COC3)CN12 [II-7] | 0.93 | > 1000 | –
COCC1COC[C@@H]2N1C(=O)c1c(O)c(=O)ccn1N2[C@@H]1c2ccccc2SCc2c1ccc(F)c2F (stereo partly drawn) [II-8] | 0.47 | > 1000 | –
O=C1c2c(O)c(=O)ccn2N([C@@H]2c3ccccc3SCc3c(F)cccc32)[C@@H]2COCC3(CC3)N12 [II-9] | – | > 1000 | EC50 ([1]; MDCK): 0.28 nM
O=C1c2c(O)c(=O)ccn2N([C@@H]2c3ccccc3SCc3c(F)cccc32)[C@@H]2COC3(CC3)CN12 [II-10] | 0.24 | > 1000 | –
O=C1c2c(O)c(=O)ccn2N([C@H]2c3ccc(F)cc3CSc3ccccc32)[C@@H]2COCC3(CC3)N12 [II-13] | – | > 1000 | EC50 ([1]; MDCK): 0.38 nM
O=C1c2c(O)c(=O)ccn2N([C@H]2c3ccc(F)cc3CSc3ccccc32)[C@@H]2COC3(CC3)CN12 [II-14] | 0.31 | > 1000 | –
O=C1c2c(O)c(=O)ccn2N([C@@H]2c3ccccc3SCc3cccc(F)c32)[C@@H]2COCC3(CC3)N12 [II-17] | – | > 1000 | EC50 ([1]; MDCK): 0.26 nM
O=C1c2c(O)c(=O)ccn2N([C@@H]2c3ccccc3SCc3cccc(F)c32)[C@@H]2COC3(CC3)CN12 [II-18] | 0.28 | > 1000 | –
O=C1c2c(O)c(=O)ccn2N([C@@H]2c3ccccc3SCc3cccc(Cl)c32)[C@@H]2COC3(CC3)CN12 [II-22] | 0.36 | > 1000 | –
COCC1CN2C(=O)c3c(O)c(=O)ccn3N([C@@H]3c4ccccc4SCc4c3ccc(F)c4F)[C@@H]2CO1 (stereo partly drawn) [II-29] | 0.57 | > 1000 | –
O=C1c2c(O)c(=O)ccn2N([C@@H]2c3ccccc3SCc3c2ccc(F)c3F)[C@@H]2CC(OC3CC3)CCN12 (stereo partly drawn) [II-34] | 0.39 | > 1000 | –
C=C1CCN2C(=O)c3c(O)c(=O)ccn3N([C@@H]3c4ccccc4SCc4c3ccc(F)c4F)[C@@H]2C1 [II-65] | 0.45 | > 1000 | –
O=C1c2c(O)c(=O)ccn2N([C@@H]2c3ccccc3SCc3c2ccc(F)c3F)[C@@H]2CC=CCN12 [II-66] | 0.18 | > 1000 | –
O=C1c2c(O)c(=O)ccn2N([C@@H]2c3ccccc3SCc3c2ccc(F)c3F)[C@@H]2C/C(=C/F)CCN12 [II-67] | 0.48 | > 1000 | –
O=C1C2N(CC3CCCN13)C(=O)c1c(O)c(=O)ccn1N2[C@@H]1c2ccccc2SCc2c1ccc(F)c2F (stereo partly drawn) [II-101] | 0.94 | > 1000 | –
COC(=O)OCOc1c2n(ccc1=O)N([C@@H]1c3ccccc3SCc3c1ccc(F)c3F)[C@@H]1COC3(CC3)CN1C2=O [III-2] | – | – | AUC(0-t) [2]: 1.377 µg·h/mL; Cmax [2]: 0.253 µg/mL; F [2]: 47.2%; T1/2 [2]: 3.32 h; Tmax [2]: 1.67 h; Body weight change [3]: remained stable; Survival rate [3]: 100%; Mean difference of virus titer compared with the solvent group [3]: 3.92 Log 10 (number of plaques per gram of lung tissue); Influenza Virus Titer in lung tissue ([3]; 15 mg/kg): 3.28 Log10 (plaques number/gram of; Influenza Virus Titer in lung tissue ([3]; listed as Compound III-2, 15 mg/kg): 3.28 ± 0.2813 Log10 (plaques number/gram of
CCOC(=O)C1=C[C@@H](OC(CC)CC)[C@H](NC(C)=O)[C@@H](N)C1 [Oseltamivir phosphate, oseltamivir phosphate, reference compound] | – | – | Body weight change [3]: remained stable; Survival rate [3]: 100%; Mean difference of virus titer compared with the solvent group [3]: 3.46 Log 10 (number of plaques per gram of lung tissue); Influenza Virus Titer in lung tissue ([3]; 15 mg/kg): 3.74 ± 0.5205 Log10 (plaques number/gram of; Influenza Virus Titer in lung tissue ([3]; listed as oseltamivir phosphate, 15 mg/kg): 3.74 Log10 (plaques number/gram of
O=C(O)[C@H]1C2CCC(CC2)[C@@H]1Nc1nc(-c2c[nH]c3ncc(F)cc23)ncc1F [VX-787, reference compound] | 1.4 | > 100 | –
